Earlier results, collected in US20070232685A1, “CRYSTALLINE FORMS OF N-(BENZO[B]THIEN-3-YLMETHYL)-SULFAMIDE” (priority 2006, published 2007).

System: carbonic anhydrase
Details: background statement on a known anticonvulsant; no method given

CC1(C)O[C@@H]2[C@@H](CO[C@@]3(COS(N)(=O)=O)OC(C)(C)O[C@@H]23)O1 [Topiramate]
carbonic anhydrase inhibition: single digit micromolar
